Laboratory results reported in patent US20250152606A1, “INDUCTION OF IRREVERSIBLE INFERTILITY IN FEMALE MAMMALIAN ANIMALS USING A SINGLE PROGESTERONE IMPLANT” (THE BOARD OF TRUSTEES OF THE UNIVERSITY OF ILLINOIS, priority 2022, published 2025).
“Also recorded” adds a separate entry of the source. Where two headings read alike, the source gives them in different places.

Tests used:
uterine glands = details: cited from earlier work
female rats = assay: Fertility test with fertility-proven male rats; type: in vivo; details: neonatally treated rats tested at 5 months
Protocol: Neonatal P4 Silastic capsule implant induces permanent infertility. Starting at 5-months of age, the estrous cycle was determined by microscopy of vaginal smears for 10 days (Table 1). […] After the estrous cycle observation, female rats were caged with fertility-proven male rats for 1 month to evaluate fertility. Seventy-five percent (¾) of the Control untreated and Oil-P4 groups were fertile, averaging 12 and 13 pups, respectively. By comparison, none of the sC-P4 was fertile.
Experiments with Silastic capsules. Neonatal female rats (3-day-old [D3]) were divided into 3 groups for the treatment (Chart 1). The Control group was subcutaneously (sc) injected with sesame oil daily for 7-days. The Oil-P4 group was injected sc with progesterone (P4) (0.5 mg P4/50 μl oil) daily for 7-days. The sC-P4 group was implanted sc with a given single P4 Silastic capsule (sC-P4) (2 mg P4/5 μl oil in a Silastic capsule having dimensions: ID 1.02 mm, OD 2.16 mm, Length 8 mm). Sera were collected by tail clipping (n=5-7) on days 6, 10, 14 and 24, and serum P4 was measured by P4-specific ELISA kit (EIA5486, DRG International Inc., NJ). Uterine histology was examined in weeks 7 and 28. […] The number of uterine glands was counted from HE-stained uterine tissue sections (n=2-4). At 5-months-old, the estrous cycle was monitored for 10 days by vaginal cytology (n=2-4). […]

[1] = Serum P4 in neonatal rats after P4 treatment (P4-specific ELISA); type: in vivo; details: repeated daily injections of P4 (Oil-P4 group)
Protocol: FIG. 2. Pharmacokinetics of progesterone treatment in neonatal rats. Three-day-old rats were treated with 2.0 mg P4 Silastic capsule, (n=5-7), injected daily with 0.5 mg P4 for 7 days (n=5-9), or vehicle (n=5-9).
Experiments with Silastic capsules. Neonatal female rats (3-day-old [D3]) were divided into 3 groups for the treatment (Chart 1). The Control group was subcutaneously (sc) injected with sesame oil daily for 7-days. The Oil-P4 group was injected sc with progesterone (P4) (0.5 mg P4/50 μl oil) daily for 7-days. The sC-P4 group was implanted sc with a given single P4 Silastic capsule (sC-P4) (2 mg P4/5 μl oil in a Silastic capsule having dimensions: ID 1.02 mm, OD 2.16 mm, Length 8 mm). Sera were collected by tail clipping (n=5-7) on days 6, 10, 14 and 24, and serum P4 was measured by P4-specific ELISA kit (EIA5486, DRG International Inc., NJ). Uterine histology was examined in weeks 7 and 28. Collected uterine tissues were fixed in 4% paraformaldehyde. Tissues were washed with ethanol, processed, and embedded in paraffin wax. Paraffin-embedded tissue blocks were cut into 6 μm thick sections. For general histological observation, slides were stained with hematoxylin and eosin (HE staining). The number of uterine glands was counted from HE-stained uterine tissue sections (n=2-4). At 5-months-old, the estrous cycle was monitored for 10 days by vaginal cytology (n=2-4). […]

uterine gland = details: repetitive injections of neonatal ewe lambs; oviduct, cervix, vagina not inhibited; cited from earlier work

Structure (SMILES) | adenogenesis at PND 10 (uterine glands; mice treated with P4 during PND 3-5 or 7-9) | adenogenesis at PND 10 (uterine glands; mice treated with P4 during PND 3-9, 5-9, or 3-7) | uterine glands in adulthood (uterine glands; mice treated with P4 during PND 3-9) | uterine gland development on PND 20 (uterine glands; mice treated with P4 during PND 5-9 or 3-7) | fertility outcome (female rats) | maximum increase in serum P4 levels compared to the Control ([1]; 6 days after the start of injections) [fold] | time serum P4 remained significantly elevated ([1]; experimental day 16) [days] | adenogenesis (uterine gland)
CC(=O)[C@H]1CC[C@H]2[C@@H]3CCC4=CC(=O)CC[C@]4(C)[C@H]3CC[C@]12C [P4, progesterone] | not | abolished adenogenesis | lacked glands in adulthood; also recorded: lack uterine glands in adulthood | resumption of uterine gland development | insufficient to achieve infertility | 2 | 10 | –
CC(=O)O[C@]1(C(C)=O)CC[C@H]2[C@@H]3CCC4=CC(=O)CC[C@@H]4[C@H]3[C@@H](C)C[C@@]21C [norgestomet] | – | – | – | – | – | – | – | irreversibly inhibits adenogenesis
